Measurements as given in ChEMBL document CHEMBL1201862, “PubChem BioAssay data set” (2004).
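These data come from cells grown in 96-well plates and exposed to compound for 48 hours at five concentrations. The concentration for 50% growth inhibition is given as GI50.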 Calls of active or inactive are those of the source. No stated cut-off is given here; in the data, active = GI50 up to about 1.1 µM and inactive = higher.

What was measured:
Experiment in all cases: growth of human tumour cells (NCI), 48 h
786-0 = tested on: 786-0
A498 = tested on: A498
A549 = tested on: A549
ACHN = tested on: ACHN
CAKI-1 = tested on: CAKI-1
CCRF-CEM = tested on: CCRF-CEM
COLO 205 = tested on: COLO 205
DU-145 = tested on: DU-145
EKVX = tested on: EKVX
HCC 2998 = tested on: HCC 2998
HCT-116 = tested on: HCT-116
HCT-15 = tested on: HCT-15
HL-60 = tested on: HL-60
HOP-62 = tested on: HOP-62
HOP-92 = tested on: HOP-92
HT-29 = tested on: HT-29
Hs-578T = tested on: Hs-578T
IGROV-1 = tested on: IGROV-1
KM12 = tested on: KM12
LOX IMVI = tested on: LOX IMVI
M14 = tested on: M14
MCF7 = tested on: MCF7
MDA-MB-435 = tested on: MDA-MB-435
MDA-N = tested on: MDA-N
MOLT-4 = tested on: MOLT-4
NCI-H226 = tested on: NCI-H226
NCI-H23 = tested on: NCI-H23
NCI-H460 = tested on: NCI-H460
NCI-H522 = tested on: NCI-H522
NCI/ADR-RES = tested on: NCI/ADR-RES
OVCAR-3 = tested on: OVCAR-3
OVCAR-5 = tested on: OVCAR-5
OVCAR-8 = tested on: OVCAR-8
RPMI-8226 = tested on: RPMI-8226
RXF 393 = tested on: RXF 393
SF-268 = tested on: SF-268
SF-295 = tested on: SF-295
SF-539 = tested on: SF-539
SK-MEL-28 = tested on: SK-MEL-28
SK-MEL-5 = tested on: SK-MEL-5
SK-OV-3 = tested on: SK-OV-3
SN12C = tested on: SN12C
SNB-75 = tested on: SNB-75
SR = tested on: SR
SW-620 = tested on: SW-620
T47D = tested on: T47D
TK-10 = tested on: TK-10
U-251 = tested on: U-251
UACC-257 = tested on: UACC-257
UACC-62 = tested on: UACC-62
UO-31 = tested on: UO-31
K562 = tested on: K562
MDA-MB-231 = tested on: MDA-MB-231
Malme-3M = tested on: Malme-3M
OVCAR-4 = tested on: OVCAR-4
PC-3 = tested on: PC-3
SK-MEL-2 = tested on: SK-MEL-2
SNB-19 = tested on: SNB-19

Measured: GI50

O=C(CC(C(=O)c1cccs1)c1ccsc1)c1ccco1 (centres undefined)
inactive: 786-0 33.7 µM | A498 27.5 µM | A549 21.6 µM | ACHN 32.3 µM | CAKI-1 29.1 µM | CCRF-CEM 19.1 µM | COLO 205 8.07 µM | DU-145 31 µM | EKVX 24.8 µM | HCC 2998 36 µM | HCT-116 21.2 µM | HL-60 15.4 µM | HOP-62 64.1 µM | HOP-92 > 100 µM | HT-29 4.8 µM | Hs-578T 19.1 µM | IGROV-1 47.6 µM | KM12 22.7 µM | LOX IMVI 37.3 µM | M14 19.4 µM | MCF7 21.1 µM | MDA-MB-435 20.3 µM | MDA-N 27.7 µM | MOLT-4 > 100 µM | NCI-H226 27 µM | NCI-H23 19.5 µM | NCI-H460 24.2 µM | NCI-H522 20 µM | NCI/ADR-RES 20.4 µM | OVCAR-3 54.8 µM | OVCAR-5 11.5 µM | OVCAR-8 32.3 µM | RPMI-8226 73.5 µM | RXF 393 20.5 µM | SF-268 27.6 µM | SF-295 39.7 µM | SF-539 27.5 µM | SK-MEL-28 17.1 µM | SK-MEL-5 27.7 µM | SK-OV-3 41.3 µM | SN12C 35.5 µM | SNB-75 28 µM | SR 41.8 µM | SW-620 30.1 µM | T47D 24.7 µM | TK-10 32.4 µM | U-251 21.4 µM | UACC-257 37.9 µM | UACC-62 22.8 µM | UO-31 21.2 µM
21.5 µM: HCT-15

CCOC(=O)c1c(N2CCCC2)nsc1Nc1ccccc1
inactive: 786-0 > 100 µM | A498 > 100 µM | A549 > 100 µM | ACHN > 100 µM | CAKI-1 > 100 µM | CCRF-CEM > 100 µM | COLO 205 > 100 µM | DU-145 > 100 µM | EKVX > 100 µM | HCC 2998 > 100 µM | HCT-116 > 100 µM | HL-60 > 100 µM | HOP-92 40.6 µM | HT-29 > 100 µM | Hs-578T 60 µM | IGROV-1 > 100 µM | K562 > 100 µM | KM12 > 100 µM | LOX IMVI > 100 µM | M14 > 100 µM | MDA-MB-231 > 100 µM | MDA-N > 100 µM | MOLT-4 > 100 µM | Malme-3M > 100 µM | NCI-H226 > 100 µM | NCI-H23 > 100 µM | NCI-H460 > 100 µM | NCI/ADR-RES > 100 µM | OVCAR-4 > 100 µM | OVCAR-5 44.6 µM | OVCAR-8 > 100 µM | PC-3 > 100 µM | RPMI-8226 > 100 µM | RXF 393 > 100 µM | SF-268 > 100 µM | SF-295 > 100 µM | SF-539 > 100 µM | SK-MEL-28 > 100 µM | SK-MEL-2 > 100 µM | SK-MEL-5 > 100 µM | SN12C > 100 µM | SNB-19 > 100 µM | SNB-75 > 100 µM | SR > 100 µM | SW-620 > 100 µM | T47D > 100 µM | TK-10 > 100 µM | UACC-257 > 100 µM | UO-31 27.5 µM
> 100 µM: HCT-15

C=Cc1cc2c(cc1O)CC[C@@H]1[C@@H]2CC[C@]2(C)[C@@H](O)CC[C@@H]12
active: MDA-MB-435 1.09 µM
inactive: 786-0 4.13 µM | A498 24.4 µM | A549 5.78 µM | ACHN 7.23 µM | CAKI-1 7.94 µM | CCRF-CEM 4.15 µM | COLO 205 15.4 µM | EKVX 7.38 µM | HCC 2998 11.2 µM | HL-60 2.67 µM | HT-29 15.3 µM | IGROV-1 8.09 µM | K562 3.03 µM | KM12 5.11 µM | LOX IMVI 8.63 µM | M14 5.4 µM | MDA-MB-231 5.33 µM | MDA-N 1.45 µM | MOLT-4 3.9 µM | Malme-3M 2.18 µM | NCI-H226 12.4 µM | NCI-H23 3.18 µM | NCI-H460 3.94 µM | NCI-H522 4.66 µM | NCI/ADR-RES 1.77 µM | OVCAR-4 11.2 µM | OVCAR-5 21.3 µM | PC-3 11.6 µM | RXF 393 2.56 µM | SF-268 4.16 µM | SF-295 3.82 µM | SF-539 2.06 µM | SK-MEL-28 4.06 µM | SK-MEL-2 5.78 µM | SK-MEL-5 4.39 µM | SK-OV-3 5.79 µM | SNB-19 4.23 µM | SNB-75 5.38 µM | SR 1.97 µM | SW-620 4.32 µM | T47D 8.79 µM | TK-10 12.2 µM | U-251 4.19 µM | UACC-257 4.15 µM | UO-31 7 µM
3.95 µM: HCT-15

CCOC(=O)[C@@H]1ON2O[C@@H](OC3CCCC3(c3ccccc3)c3ccccc3)C[C@H]3OC(=O)[C@@H]1C32 (some centres undefined)
active: A549 < 0.01 µM
inactive: 786-0 30.2 µM | A498 > 100 µM | ACHN 19.5 µM | CAKI-1 17.2 µM | CCRF-CEM 27.5 µM | COLO 205 38.1 µM | DU-145 22.6 µM | EKVX > 100 µM | HCC 2998 41.8 µM | HCT-116 33.8 µM | HL-60 23.2 µM | HOP-62 31 µM | HOP-92 64.6 µM | HT-29 15.2 µM | Hs-578T 31.4 µM | IGROV-1 33.8 µM | KM12 15.6 µM | LOX IMVI 37.8 µM | M14 16.6 µM | MCF7 20.8 µM | MDA-MB-231 25.2 µM | MDA-MB-435 16.8 µM | MDA-N 20.7 µM | MOLT-4 29.9 µM | NCI-H226 56.6 µM | NCI-H23 18.4 µM | NCI-H460 35.6 µM | NCI-H522 33.1 µM | NCI/ADR-RES 34.4 µM | OVCAR-3 23.4 µM | OVCAR-5 20.9 µM | OVCAR-8 32.8 µM | RPMI-8226 35.6 µM | RXF 393 17.1 µM | SF-268 28.7 µM | SF-295 > 100 µM | SF-539 24.9 µM | SK-MEL-5 32 µM | SK-OV-3 86.5 µM | SN12C 32.8 µM | SNB-75 32.4 µM | SR 23.1 µM | SW-620 24.7 µM | T47D 22.3 µM | TK-10 21.1 µM | U-251 56.4 µM | UACC-257 21.4 µM | UACC-62 19.1 µM | UO-31 19.1 µM
31 µM: HCT-15
